How the values were obtained:
[1] = target: T1, hM1 muscarinic receptor (Homo sapiens, UniProt P11229); test: Radioligand binding assay for muscarinic receptors ([3H]-NMS displacement); conditions: M1 muscarinic receptor subtype, CHO cell membranes, [3H]-NMS 1 nM
T1 construct: expressed in transfected cells; host or cells: CHO
T1 sequence (P11229 1-460): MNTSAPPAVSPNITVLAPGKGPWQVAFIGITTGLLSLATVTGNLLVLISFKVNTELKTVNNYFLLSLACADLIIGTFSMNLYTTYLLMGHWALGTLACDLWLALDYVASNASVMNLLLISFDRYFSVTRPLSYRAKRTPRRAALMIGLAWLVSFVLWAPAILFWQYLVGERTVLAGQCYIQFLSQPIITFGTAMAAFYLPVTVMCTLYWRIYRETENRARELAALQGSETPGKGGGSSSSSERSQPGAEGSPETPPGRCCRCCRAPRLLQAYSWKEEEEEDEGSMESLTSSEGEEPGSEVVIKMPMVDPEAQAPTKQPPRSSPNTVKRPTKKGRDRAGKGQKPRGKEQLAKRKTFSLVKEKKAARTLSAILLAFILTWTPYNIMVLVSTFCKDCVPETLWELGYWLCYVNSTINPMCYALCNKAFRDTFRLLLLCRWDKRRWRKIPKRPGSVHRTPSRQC
Description: (§1) CHO cell lines stably expressing cloned human hM1, hM2, hM3 and hM4 muscarinic receptor subtypes, respectively, were grown to near confluency in Hams F-12 media supplemented with 10% FBS and 250 μg/mL Geneticin. The cells were grown in a 5% CO2, 37° C. incubator and lifted with 2 mM EDTA in dPBS. Cells were collected by 5 minute centrifugation at 650×g, and cell pellets were either stored frozen at −80° C. or membranes were prepared immediately for use. For membrane preparation, cell pellets were resuspended in lysis buffer and homogenized with a Polytron PT-2100 tissue disrupter (Kinematica AG; 20 seconds×2 bursts). Crude membranes were centrifuged at 40,000×g for 15 minutes at 4° C. The membrane pellet was then resuspended with re-suspension buffer and homogenized again with the Polytron tissue disrupter. The protein concentration of the membrane suspension was determined by the method described in Lowry et al., 1951, Journal of Biochemistry, 193, 265. All membranes were stored frozen in aliquots at −80° C. or used immediately. Aliquots of prepared hM5 receptor membranes were purchased directly from PerkinElmer, Inc. (Wellesley, Mass.) and stored at −80° C. until use.
(§2) Radioligand binding assays for cloned muscarinic receptors were performed in 96-well microtiter plates in a total assay volume of 100 μL. CHO cell membranes stably expressing either the hM1, hM2, hM3, hM4 or hM5 muscarinic subtype were diluted in assay buffer to the following specific target protein concentrations (μg/well): 10 μg for hM1, 10-15 μg for hM2, 10-20 μg for hM3, 10-20 μg for hM4, and 10-12 μg for hM5 to get similar signals (cpm). The membranes were briefly homogenized using a Polytron tissue disrupter (10 seconds) prior to assay plate addition. Saturation binding studies for determining KD values of the radioligand were performed using L-[N-methyl-^3H]scopolamine methyl chloride ([^3H]-NMS) (TRK666, 84.0 Ci/mmol, Amersham Pharmacia Biotech, Buckinghamshire, England) at concentrations ranging from 0.001 nM to 20 nM. Displacement assays for determination of Ki values of test compounds were performed with [^3H]-NMS at 1 nM and eleven different test compound concentrations. The test compounds were initially dissolved to a concentration of 400 μM in dilution buffer and then serially diluted 5× with dilution buffer to final concentrations ranging from 10 pM to 100 μM. The addition order and volumes to the assay plates were as follows: 25 μL radioligand, 25 μL diluted test compound, and 50 μL membranes. Assay plates were incubated for 60 minutes at 37° C. Binding reactions were terminated by rapid filtration over GF/B glass fiber filter plates (PerkinElmer, Inc.) pre-treated in 1% BSA. Filter plates were rinsed three times with wash buffer (10 mM HEPES) to remove unbound radioactivity. The plates were then air-dried and 50 μL Microscint-20 liquid scintillation fluid (PerkinElmer, Inc.) were added to each well. The plates were then counted in a PerkinElmer Topcount liquid scintillation counter (PerkinElmer, Inc.). Binding data were analyzed by nonlinear regression analysis with the GraphPad Prism Software package (GraphPad Software, Inc., San Diego, Calif.) using the one-site competition model. Ki values for test compounds were calculated from observed IC50 values and the KD value of the radioligand using the Cheng-Prusoff equation (Cheng Y; Prusoff W H. (1973) Biochemical Pharmacology, 22(23):3099-108). […]

[2] = target: T2, hM5 muscarinic receptor (Homo sapiens, UniProt P08912); test: as above; conditions: M5 muscarinic receptor subtype, CHO cell membranes, [3H]-NMS 1 nM
T2 construct: purchased PerkinElmer, Inc. (Wellesley, Mass.); host or cells: CHO cell membranes
T2 sequence (P08912 1-532): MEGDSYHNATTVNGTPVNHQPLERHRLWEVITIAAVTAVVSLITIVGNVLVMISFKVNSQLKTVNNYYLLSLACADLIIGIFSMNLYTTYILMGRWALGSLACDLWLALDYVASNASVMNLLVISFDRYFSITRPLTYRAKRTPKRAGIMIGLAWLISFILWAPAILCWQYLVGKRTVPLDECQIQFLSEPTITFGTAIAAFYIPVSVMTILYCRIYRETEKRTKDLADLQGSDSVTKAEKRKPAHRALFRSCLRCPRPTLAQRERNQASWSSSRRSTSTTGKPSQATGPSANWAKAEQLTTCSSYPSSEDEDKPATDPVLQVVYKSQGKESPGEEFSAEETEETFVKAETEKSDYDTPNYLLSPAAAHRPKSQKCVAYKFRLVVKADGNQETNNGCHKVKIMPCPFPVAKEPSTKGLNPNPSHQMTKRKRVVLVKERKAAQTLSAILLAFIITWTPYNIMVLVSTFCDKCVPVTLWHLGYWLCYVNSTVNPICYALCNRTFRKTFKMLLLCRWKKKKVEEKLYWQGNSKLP
Description: as §1, §2

Ki [1]: < 0.01 µM
Ki [2]: < 0.01 µM
SMILES: Cc1cc(NC(=O)CCN2CCC(OC(=O)Nc3ccccc3-c3ccccc3)CC2)c(C)cc1CNC[C@H](O)c1ccc(O)c(NC=O)c1 [compound of formula I, biphenyl-2-ylcarbamic acid 1-[2-(4-{[(R)-2-(3-formylamino-4-hydroxyphenyl)-2-hydroxyethylamino]methyl}-2,5-dimethylphenylcarbamoyl)ethyl]-piperidin-4-yl ester]
